We go through three molecules from PMC4208844 (PLoS ONE, 2014).

Each structure is given as a SMILES string.

Series [1] is described as follows: MTT cytotoxicity test in LS174T cells. As to conditions: human. The method, then: (§1) A transiently transfected LS174T human colon adenocarcinoma cells were used for assessment of PXR transcriptional activity. […] The reporter plasmid was transiently transfected to LS174T cells by lipofection (FuGENE 6). Cells were incubated for 24 h with tested compounds and/or vehicle (DMSO; 0.1% v/v), in the presence or absence of RIF (10 µM; LS174T cells). After the treatments, cells were lysed and luciferase activity was measured. In parallel, cell viability was determined by conventional MTT test [MTT = 3-(4,5-dimethylthiazol-2-yl)-2,5-diphenyltetrazolium bromide]; briefly: After the treatment, culture medium was replaced with fresh one and 100 µL of MTT reagent (5 mg/mL PBS) was added. Three hours later, the medium was removed, and cells were washed with PBS and lysed for 5 min with 1 mL of DMSO containing 1% ammonia. The lysate was diluted 20 times with DMSO (+1% ammonia) and absorbance at 540 nm was measured against blank (DMSO+1% ammonia) (TECAN, Schoeller Instruments LLC). Results were normalized to the control value (i.e. 100×A sample/A control) and expressed as percentage of control.

The next series relates to CYP3A4 protein. In words: CYP3A4 protein expression (Western blot) in HepG2 cells. The series is classed as cell-based, human. As to conditions: 48 h. How it is done: Human colon adenocarcinoma cells LS174T (ECACC No. 87060401) and human hepatocellular carcinoma cells HepG2 (ECACC No. 85011430) were purchased from ECACC and were cultured in as recommended by manufacturer. Primary human hepatocytes used in this study were obtained from two sources: (i) from multiorgan donors HH52 and […] (male; 71 years); the use of liver cells of donors HH52 and HH54 was approved by “Ethical committee at the Faculty Hospital Olomouc”, and it was in accordance with Transplantation law #285/2002 Sb; “Ethical committee at the Faculty Hospital Olomouc” waived the authors from obtaining consent from the next of kin, regarding human hepatocytes obtained from liver donors HH52 and HH54. (ii) long-term human hepatocytes in monolayer Batch HEP220770 (person) were purchased from Biopredic International (Biopredic International, Rennes, France). Cells were cultured in serum-free medium. Cultures were maintained at 37°C and 5% CO2 in a humidified incubator.
Total protein extracts were prepared as described elsewhere. SDS-PAGE gels (10%) were run according to the general procedure followed by the protein transfer onto PVDF membrane. The membrane was saturated with 5% non-fat dried milk. […] The density of bands was measured by densitometry.

The next series has as its system CYP3A4/5. Kind of series: CYP3A4/5 catalytic activity, testosterone 6β-hydroxylation in human liver microsomes. As to conditions: pH 7.4, probe testosterone (6β-hydroxylation). (Liver microsomes are vesicles of endoplasmic reticulum, rich in cytochrome P450 enzymes.)
A further series has as its target T1, pregnane X receptor PXR (Homo sapiens, UniProt O75469).
T1 sequence (O75469 1-434): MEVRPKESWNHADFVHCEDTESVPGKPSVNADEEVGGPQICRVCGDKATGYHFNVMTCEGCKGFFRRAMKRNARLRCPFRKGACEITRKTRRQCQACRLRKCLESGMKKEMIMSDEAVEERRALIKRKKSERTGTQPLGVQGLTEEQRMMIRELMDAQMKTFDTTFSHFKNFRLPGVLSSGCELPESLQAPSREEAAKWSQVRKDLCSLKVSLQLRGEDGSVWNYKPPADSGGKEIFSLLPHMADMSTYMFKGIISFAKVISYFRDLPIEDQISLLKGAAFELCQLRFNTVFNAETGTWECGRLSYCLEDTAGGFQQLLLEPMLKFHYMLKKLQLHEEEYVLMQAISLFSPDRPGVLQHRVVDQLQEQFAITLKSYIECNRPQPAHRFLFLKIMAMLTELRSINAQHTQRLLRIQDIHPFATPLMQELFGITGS
As to conditions: read-out: PXR antagonist IC50; transfected LS174T cells; 24 h; in the presence of RIF (10 µM).

A further series deals with LS174T cells. In words: MTT cytotoxicity test in LS174T cells. As to conditions: read-out: MTT test IC50 (cytotoxicity); LS174T cells; 24 h incubation. The method, then: as §1

In turn, `CC(=O)N1CCN(c2ccc(OCC3COC(Cn4ccnc4)(c4ccc(Cl)cc4Cl)O3)cc2)CC1` (racemic) [(rac)-KET, ketoconazole] returned an IC50 at 24 h in series [1] of 50.3 µM. Also, in the series with CYP3A4 protein, the “CYP3A4 protein induction (in words)” value is “did not find convincing induction”. The molecule also registered an activity at 10 µM in the series with CYP3A4/5 of 3%.
For the molecule `CC(=O)N1CCN(c2ccc(OC[C@H]3CO[C@](Cn4ccnc4)(c4ccc(Cl)cc4Cl)O3)cc2)CC1` [(+)-KET, (2R,4S)-(+)-KET], the IC50 at pregnane X receptor PXR was found to be 41.2 µM; with LS174T cells it was 52.7 µM.
With `CC(=O)N1CCN(c2ccc(OC[C@@H]3CO[C@@](Cn4ccnc4)(c4ccc(Cl)cc4Cl)O3)cc2)CC1` [(−)-KET, (2S,4R)-(−)-KET], the midpoint of inhibition in series [1], the IC50 at 24 h, lay at 57.5 µM.

Broadly, the IC50 is the concentration at which inhibition is half-maximal.
